# Reference: a melting point compilation (Tetko et al.; mined from patent text by program, amines drawn as free bases though some values may be those of a salt)
row,Structure (SMILES),melting point
1,CCN(CC)CCOc1ccc(Nc2ncc3c(n2)N(c2ccccc2)C(=O)N(c2ccc(Cl)cc2Cl)C3)cc1,106 to 108 °C
2,CCN1CC(N(CCN2CCCC2)S(=O)(=O)c2ccc(Nc3nccc(Nc4ccc(F)c(C)c4)n3)cc2)C1,195 °C
3,CC(=O)OCC1OC(n2cc(C(Cl)=CI)c(=O)[nH]c2=O)CC1OC(C)=O (stereo not given),81 to 83 °C
4,O=C(Nc1cscn1)C(F)(F)F,138 to 139 °C
5,COc1ccc(OC[C@@H](O)CNCCc2ccc(NC3SC(=O)NC3=O)cc2)cc1 (stereo not given in full),60 °C
6,CN1CCC(OC2c3ccccc3CCn3c2nc(-c2ccc(C(=O)OC(C)(C)C)cc2)c3C#N)CC1 (stereo not given),95 °C
7,C=CCCn1cnc2c1c(=O)[nH]c(=O)n2C,245 to 246 °C
8,O=C(Oc1ccccc1)N1Cc2ccccc2C(Oc2ccc(C(F)(F)F)cc2)C1 (stereo not given),72 °C
9,Oc1ccc2c(c1)Cc1cc(Br)ccc1-2,183 to 184 °C
10,NC(=O)c1ncn2c1NCC=C2c1cccc(C(F)(F)F)c1,192 to 194 °C
11,COc1cccc(CC(=O)O)c1OCCCc1cc(OC(C)C)nn1Cc1ccc2ccccc2n1,129 to 130 °C
12,O=[N+]([O-])c1cc(OCCCl)ccc1Cl,46 to 48 °C
13,c1ccc2c(c1)c1ccccc1n2-c1ccc(-n2ccnc2-c2nccn2-c2ccc(-n3c4ccccc4c4ccccc43)cc2)cc1,270 to 274 °C
14,O=C1N[C@H](Cc2ccc(C(F)(F)F)cc2)[C@H](c2ccoc2)O1 (racemic),111 to 112 °C
15,CN(C)CCNc1ccc([N+](=O)[O-])c2sc3ccccc3c(=O)c12,177 to 179 °C
16,COc1ccc([N+](=O)[O-])cc1CBr,78 °C
17,Cc1oncc1C(=O)c1ccccc1[N+](=O)[O-],104 to 106 °C
18,CC(Nc1nc(-c2ccccc2)cs1)c1ccc(CO)cc1 (stereo not given),88 to 90 °C
19,CCCCNC(=O)[C@H](C)C[C@H](O)[C@H](CC1CCCCC1)NC(=O)[C@H](Cc1cscn1)NC(=O)[C@@H](CC(=O)N1CCOCC1)Cc1ccccc1,162 to 163 °C
20,CCOC(=O)c1cnn(C)c1C(=O)Nc1ccn2nc(-c3ccnc(F)c3)nc2c1,220 to 230 °C
21,O=C1N(CC2OC(O)C(O)C(O)C2O)c2ccccc2C12COc1cc3c(cc12)OCCO3 (stereo not given),122 to 126 °C
22,FC(F)(F)C(/C=C/c1ccc(CNc2ccccn2)c(Cl)c1)c1cc(Cl)c(Cl)c(Cl)c1 (stereo not given),140 to 142 °C
23,CC(C(=O)O)c1ccc(-n2cc(Cl)cn2)cc1 (stereo not given),152 to 153 °C
24,Cn1nnnc1SCC(=O)NC/C=C\COc1cc(CN2CCCCC2)ccn1,58 to 62 °C
25,Oc1ccc(NC2Cc3ccccc3C2)cc1,165 to 167 °C

row,Structure (SMILES),melting point
1,Nc1nc(NC2CCCCC2)nc(NC2CCCCC2)n1,153 °C
2,O=C(Cc1ccccc1Br)NCC1OC(n2cc(Br)c(=O)[nH]c2=O)CC1O (stereo not given),222 to 223 °C
3,O=CNc1nc(C(=NOC(=O)C(Cl)Cl)C(=O)O)ns1,123 °C
4,ClCCN(CCCl)CCOc1ccc(Nc2c3ccccc3nc3c(OCCN(CCCl)CCCl)cccc23)cc1,105 to 106 °C
5,O=C(O)C1C2CNCC21 (stereo not given),101 to 102 °C
6,CN(C)CCCC1CCN(C=Nc2ccc3c(c2)C(=O)c2ccc(N=CN4CCC(CCCN(C)C)CC4)cc2C3=O)CC1,171 to 174 °C
7,CN1C(=O)[C@@H](CN2CCCCC2)C[C@H]1c1ccc(Br)cc1,55 to 58 °C
8,COC(=O)CCc1ccc(OCCSCCO)cc1,47 to 48 °C
9,CC1(C)C2CC[C@]1(C)C(=O)C(C(=O)Nc1cc(C(F)(F)F)cc(C(F)(F)F)c1)C2=O (stereo not given in full),68 to 72 °C
10,Cc1c(O)ccc(C(=O)c2cccs2)c1C,144 °C
11,CN1[C@@H](c2cccc(Cl)c2)c2ccccc2S1(=O)=O,164 °C
12,COCn1c(C(N)=O)c(OC(C)C)c2cc(OC)ccc21,145 to 147 °C
13,CN(C)c1nc(NCc2ccc(NC(=O)C3CCN(Cc4ccccc4)CC3)cc2)c2ccc(I)cc2n1,194 °C
14,CCOC(=O)C(=O)NCC(=O)C(C)(C)C,82 to 85 °C
15,NC(=O)c1cnn(C2OC(CO)C(O)C2O)n1 (stereo not given),150 to 151 °C
16,O=C(O)c1cnc(S)n1C(c1ccccc1)c1ccccc1,158 °C
17,CC#CC(O)(C#CC)C1(Cl)CC(c2ccccc2)=CC=C1N (stereo not given),112 to 114 °C
18,CCOP(=O)(Cc1ccc(NC(=O)/C=C/c2cnoc2-c2ccccc2)cc1)OCC,173 to 174 °C
19,CCOC(=O)C(C)Oc1ccc(Oc2ccc3cc(Br)ccc3n2)cc1 (stereo not given),85 °C
20,COc1cc(Sc2nc(C)c(CC(=O)O)s2)nc(OC)n1,164 to 165 °C
21,Cc1c(C#N)sc2nc(-c3ccc([N+](=O)[O-])cc3)nc(N3CCNCC3)c12,250 °C
22,Cc1noc(C)c1S(=O)(=O)n1c(Br)nc(Br)c1Br,165 to 170 °C
23,CC1(C)Oc2ccc(S(=O)(=O)C(F)(F)C(F)(F)C(F)(F)F)cc2[C@@H](N2Cc3ccccc3C2=O)[C@@H]1O (relative stereo),241 to 249 °C
24,COC(=O)Cc1cc(C(=O)c2ccc3cc(-c4ccccc4)[nH]c3c2)sc1-c1ccccc1,183 to 185 °C
25,CCOC(=O)c1c(Cl)nc(-c2cccc([N+](=O)[O-])c2)c([N+](=O)[O-])c1C(=O)OCC,90 to 91 °C

row,Structure (SMILES),melting point
1,O=C1c2cc3nn[nH]c(=O)c3cc2OC2CCCN12 (stereo not given),253 °C
2,CCCCNc1cc(C)nc2cn[nH]c12,160 to 170 °C
3,Cc1ccc(-c2cc[nH]c2CC[N+](=O)[O-])cc1,81 to 82 °C
4,CN(Cc1ccc(NC(=O)C2=Cc3cc(-c4cccc(Cl)c4)ccc3S(=O)(=O)CC2)cc1)C1CCOCC1,221 to 224 °C
5,CCCOc1ccccc1-c1nc2[nH]c(=O)c(=O)[nH]c2c(=O)[nH]1,312 to 315 °C
6,C=CCn1c(=O)c2ccccc2n2c(CCCl)nnc12,142 to 144 °C
7,O=c1[nH]cc(-c2ccncn2)cc1Br,> 250 °C
8,CC(C)(C)c1cc(Nc2cccc(-c3nnn[nH]3)c2)cc(C(C)(C)C)c1O,231 to 233 °C
9,CCCOc1ccc(-c2csc(-c3ccccc3Cl)c2CC(=O)N=C(N)N)cc1,111 to 113 °C
10,CCCCSCC(=O)c1ccc2c(c1)n(C)c(=O)n2C,80 to 81 °C
11,O=Cc1cccc(-c2cccs2)n1,48 to 50 °C
12,CN(C)C1CCN(c2cc3ccccc3c(=O)[nH]2)CC1,204 to 205 °C
13,CN1CCN(CC(=O)N2c3ccccc3N(C)S(=O)(=O)c3ccccc32)CC1,143 to 144 °C
14,CC(C)OC(=O)N1CCC(NC(=O)N2CCn3c(c(C(N)=O)c(C#N)c3-c3ccccc3)C2)CC1,172 to 174 °C
15,CC(C)(C)C(=O)Nc1ccc2c(c1)ncn1c(=O)c(C(=O)O)cnc21,252 to 256 °C
16,COc1ccc2nc(Cl)nc(N(C)c3ccccc3)c2c1,133 to 134 °C
17,COc1cc2c(cc1OC)C(=O)C(N1CCC(n3c(=O)[nH]c4ccccc43)CC1)CC2 (stereo not given),238 to 239 °C
18,Cn1c(=O)c2c3oc4ccccc4oc3c3[nH]c4cc(O)ccc4c3c2c1=O,360 °C
19,CCCc1nc2c(N)nc3ccccc3c2n1CC1(C(N)=O)CCC1,234 to 237 °C
20,COc1cc(C)c2c(=O)c3c(OC)cccc3oc2c1OC,158 °C
21,CC(C)(C)OC(=O)NNC1C2CC3CC(C2)CC1C3 (stereo not given),90 to 92 °C
22,CCCC(=O)Nc1cc(N(CCO)CCO)ccc1N=Nc1snc(C)c1C#N,175 to 178 °C
23,CC12CCC(O)CC1=CCC1C2CCC2(C)C(=C(C#N)CC(=O)O)CCC12 (stereo not given),245 to 250 °C
24,O=C(CCl)N1CCN(C(=O)CCl)CC1,104 to 107 °C
25,CC(C)c1cc(O)n(C)n1,120 to 122 °C

row,Structure (SMILES),melting point
1,Cc1nc(NC(=O)Nc2ccc(N3CCN(C(=O)Nc4ccc(OCCO)cc4Cl)CC3)nc2)sc1C,184 to 185 °C
2,CCOC(=O)C1=C(C)NC(C)=C(C(=O)OCC)C1c1ccccc1/C=C/C(=O)OC1CCCCCC1,192 to 194 °C
3,CC1(C)CC(=O)Nc2cc(N)ccc21,161 to 163 °C
4,CCOC(=O)c1ccc(NC(=O)c2sc3ccc(OC)cc3c2OC(C)C)nc1,131 to 133 °C
5,CC(C)(NC(=O)C1=C(C(=O)Nc2cc(OC3CCCC3)c(Cl)cc2F)CCCC1)c1ccc(Br)cc1,214 to 216 °C
6,Cc1cc(C2=NN(c3nncs3)C(C)Cc3cc4c(cc32)OCO4)ccc1[N+](=O)[O-] (stereo not given),182 to 189 °C
7,Nc1c(CC(=O)O)cccc1C(=O)c1ccc(F)cc1,136 to 137 °C
8,CN1CCN(c2nccc(Oc3ccc(NC(=O)c4cc(F)cc(N5CCOCC5)c4)c4ccccc34)n2)CC1,195 to 197 °C
9,O=C(O)C1=C(c2ccccc2)c2ccccc2CS1,155 to 156 °C
10,COc1cc(OC)c2c(=O)n(CCCN3CCCC3)c(-c3cc(C)c(OCCCN4CCCC4)c(C)c3)nc2c1,109 to 111 °C
11,CCCCNC(=O)COc1ccn2nc(-c3ccccc3)c(-c3ccc(=O)n(C(C)C)n3)c2c1,151 to 152 °C
12,CC(=S)c1cncn1C(c1ccccc1)c1ccccc1,98 °C
13,O=C(O)[C@]1(c2ccc(Br)cc2)CC1(c1ccccc1)c1ccccc1,180 to 182 °C
14,O=C(CN1CCN(c2ccncc2)CC1)c1ccc(CC(O)=S)cc1,240 to 244 °C
15,CCOC(=O)c1cc(-c2ccccc2)nc2c([N+](=O)[O-])cccc12,138 to 140 °C
16,O=c1[nH]ccc2c1ccc1cc[nH]c12,244 to 245 °C
17,COC(=O)c1ccc(-c2cc(-c3ccc(Cl)cc3)no2)cc1,225 to 226 °C
18,O=c1[nH]c(=O)n(C2COC(CO)C2CO)cc1C=CBr (stereo not given),142 to 143 °C
19,O=C(NCCn1ccccc1=O)c1cccnc1,158 to 159 °C
20,COC(=O)c1ccc2c(c1CBr)OCO2,56 to 58 °C
21,C[C@@H]1[C@H]2C(=O)N(Cc3ccccc3)C(=O)[C@H]2[C@@H](c2ccc(C(N)=NO)cc2)N1C (racemic),194 to 196 °C
22,CC(=NO)C(=O)C(C)(C)C,107 to 110 °C
23,CC(C)(c1ccccc1)N1CC(O)=C(c2ccccc2)C1=O,206 to 208 °C
24,Cc1cc(S(=O)(=O)Nc2onc(C)c2Br)c(C)s1,77 to 80 °C
25,CCOC(=O)C(c1ccc(N)cc1)N(C)C(C)C (stereo not given),70 to 71 °C
